Data taken from patent US20250361272A1, “HISTIDINE-BASED UNNATURAL AMINO ACID, ITS PRODUCTION AND USE” (priority 2024, published 2025).
Residues, ends and D or L forms follow the SMILES beside them.

How the values were obtained:
in vitro = details: human, 30% human serum in RPMI medium
Description: The experiment was performed in RPMI medium with 30% human serum at 37° C. Aliquots of the solution were analysed by HPLC-MS and the relative content was determined using an internal standard (phenol). The experiment was performed in three independent experiments.

S. pneumoniae = format: cell-based
Bacillus subtilis = experiment: Minimum inhibitory concentration (MIC) in Mueller-Hinton medium; format: cell-based; details: relative to Com2
Description: The experiments were performed in Mueller-Hinton medium in three independent experiments.
Analogously to P14, these amino acids have been incorporated into the parental sequence of Com2 and were partially tested on their antimicrobial activity against Gram-positive Bacillus Subtilis 3610 NCIB.

E. feacium = format: cell-based
E. cloacae = format: cell-based
K. pneumoniae [1] = format: cell-based
A. baumannii [2] = format: cell-based
A. baumannii [3] = experiment: Infection model 2: mouse skin infection with A. baumannii; format: in vivo; details: A. baumannii infected mice, superficial abrasion
Description: (§1) The number of surviving bacterial colonies after treatment with peptide is shown.
Infection of the mice was induced by superficial abrasion and incubation with the bacterial culture.

K. pneumoniae [4] = experiment: Infection model 1: treatment of K. pneumoniae-infected A549 lung cells; format: cell-based; details: at 8 μM, surviving bacterial colonies
Description: as §1
The peptide P14 was tested as an antibiotic against the treatment of K. pneumoniae-infected A549 lung cells.

S. aureus = experiment: MIC against ESKAPE pathogens in Mueller-Hinton medium; format: cell-based; details: Gram-positive
B. subtilis NCIB 3610 = experiment: Fluorescence microscopy of B. subtilis stained with HADA (peptidoglycan synthesis); format: cell-based
From the text: Scale bars represent 2 μm. BF are the bright light images.
Fluorescence microscopy of B. subtilis stained with HADA, showing newly synthesised peptidoglycan from control cells.

P. aeruginosa = format: cell-based
[5] = Viability of HCT116 cells (cytotoxicity); format: cell-based; details: human; HCT116 cells in DMEM with 10% FBS; read-out: cytotoxic concentration CC50
Description: (§2) FIGS. 3A and 3B show the viability of HCT116 cells in DMEM with 10% FBS and 1% penicillin/streptomycin (FIG. 3A). The haemolysis experiments were performed with fresh blood from a healthy donor. Both experiments were performed in three independent experiments.
(§3) This is therefore >65-fold higher than the minimum inhibitory concentration against B. subtilis. […] Consequently, the P14 peptide as an antibiotic offers a distinct concentration window for therapeutic use.

HCT116 cells = experiment: Viability of HCT116 cells (cytotoxicity); format: cell-based; details: CC50 (HCT116) over MIC (B. subtilis)
Description: as §2, §3

human blood = experiment: Haemolysis experiment with fresh blood from a healthy donor; format: cell-based
Description: as §2, §3
3) Haemolysis experiments using human blood from a healthy donor show a haemolytic concentration >50-fold above the minimum inhibitory concentration against B. subtilis.

E. coli = experiment: MIC against ESKAPE pathogens in Mueller-Hinton medium; format: cell-based; details: Gram-negative

N=C(N)NCCC[C@H](NC(=O)[C@H](Cc1c[nH]c2ccccc12)NC(=O)[C@H](Cc1c[nH]c2ccccc12)NC(=O)[C@H](CCCNC(=N)N)NC(=O)[C@@H](N)CCCNC(=N)N)C(=O)N[C@@H](Cc1ccccc1)C(N)=O [Com2, H2N-RRWWRF-CONH2, reference compound] (H-RRWWRF-NH2)
half-life (in vitro): ~24 min

CC(=O)Nc1ccc(C(=O)N[C@@H](CCCNC(=N)N)C(=O)N[C@@H](CCCNC(=N)N)C(=O)N[C@@H](Cc2c[n+](Cc3ccc4ccccc4c3)cn2Cc2ccc3ccccc3c2)C(=O)N[C@@H](Cc2c[n+](Cc3ccc4ccccc4c3)cn2Cc2ccc3ccccc3c2)C(=O)N[C@@H](CCCNC(=N)N)C(=O)N[C@@H](Cc2ccccc2)C(N)=O)cc1 [Peptide P14, Aba-RR-Hdn-Hdn-RF-CONH2]
MIC (S. pneumoniae): 2.2 µM
minimum inhibitory concentration (MIC) compared to the parent peptide (Com2) (Bacillus subtilis): > 24 fold
MIC (E. feacium): 0.8 µM
MIC (E. cloacae): 25 µM
MIC (K. pneumoniae [1]): 12.5 µM
MIC (A. baumannii [2]): 6.3 µM
potency in mouse skin infection compared to polymyxin B (A. baumannii [3]): can be compared with that of the commonly used polymyxin B
activity in mouse skin infection compared to control peptide P3 (A. baumannii [3]; surviving bacterial colonies): higher activity than the control peptide P3
inhibition of bacterial growth in infected A549 lung cells (K. pneumoniae [4]): complete inhibition of bacterial growth
half-life (in vitro): > 840 min
MIC (S. aureus): 1.6 µM
HADA staining of newly synthesised peptidoglycan (B. subtilis NCIB 3610): inhibits bacterial polyglycan synthesis
MIC (P. aeruginosa): 12.5 µM
CC50 [5]: 50.4 ± 4.48 µM
cytotoxic concentration relative to MIC against B. subtilis (HCT116 cells): > 65 fold
haemolytic concentration relative to the MIC value (human blood; HC50 over MIC (B. subtilis)): > 50 fold
haemolytic concentration HC50 (human blood; fresh blood from a healthy donor): 38.62 ± 2.58 µM
MIC (E. coli): 25 µM

CN[C@H](CC(C)C)C(=O)N[C@H]1C(=O)N[C@@H](CC(N)=O)C(=O)N[C@H]2C(=O)N[C@H]3C(=O)N[C@H](C(=O)N[C@H](C(=O)O)c4cc(O)cc(O)c4-c4cc3ccc4O)[C@H](O)c3ccc(c(Cl)c3)Oc3cc2cc(c3O[C@@H]2O[C@H](CO)[C@@H](O)[C@H](O)[C@H]2O[C@H]2C[C@](C)(N)[C@H](O)[C@H](C)O2)Oc2ccc(cc2Cl)[C@H]1O [vancomycin, reference compound]
HADA staining of newly synthesised peptidoglycan (B. subtilis NCIB 3610): no HADA binding to the cell periphery is visible
